Consider 30 compounds from patent US10988478B1, “Pyrazolo[1,5a]pyrimidine derivatives as IRAK4 modulators” (Genentech, Inc., priority 2015, dated 2021).

pKi: −log10 of the molar value.

The target of the experiment is human IRAK4 (Homo sapiens (Human), UniProt Q9NWZ3). The experiment in a line: IRAK4 kinase inhibition, Transcreener fluorescence polarization ADP assay. It is filed as biochemical. Conditions: recombinant full-length His6-IRAK4; 125 uM ATP; 90 min; Ki computed using ATP Km 642 uM. On the procedure: Compounds were assayed for inhibition of human IRAK4 and IRAK1 catalytic activity using recombinant enzyme produced from insect cells. Full-length IRAK4 protein, carrying an N-terminal His6-Tag, was obtained from Life Technologies (Carlsbad, Calif., USA). The IRAK1 construct was produced internally and was comprised of IRAK1 residues Arg194 to Ser712, preceded by an NH2-terminal His6 tag and the coding sequence for glutathione-S-transferase.
Chain of human IRAK4 (Q9NWZ3 whole entry, the tested form may be a part): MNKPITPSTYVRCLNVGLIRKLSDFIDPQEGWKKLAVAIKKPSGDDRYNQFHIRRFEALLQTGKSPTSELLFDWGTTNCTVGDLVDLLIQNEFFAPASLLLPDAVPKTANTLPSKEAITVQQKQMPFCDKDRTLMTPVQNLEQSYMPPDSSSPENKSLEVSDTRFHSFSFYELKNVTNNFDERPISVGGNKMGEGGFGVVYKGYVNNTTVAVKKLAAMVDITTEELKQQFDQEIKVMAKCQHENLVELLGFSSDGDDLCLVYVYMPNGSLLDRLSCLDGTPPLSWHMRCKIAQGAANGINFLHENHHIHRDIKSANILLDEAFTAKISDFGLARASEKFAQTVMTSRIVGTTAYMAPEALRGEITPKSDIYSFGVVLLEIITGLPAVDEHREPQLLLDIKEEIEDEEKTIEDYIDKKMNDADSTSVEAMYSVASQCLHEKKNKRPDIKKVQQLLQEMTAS
(In general: Fluorescence polarisation rises when a labelled molecule tumbles more slowly, as on binding a larger partner.)
Take `C[C@@H](N)CN1CCN(c2cc3c(cc2NC(=O)c2cnn4cccnc24)CC(C)(C)O3)CC1` [Example 477, N-[6-[4-[(2R)-2-Aminopropyl]piperazin-1-yl]-2,2-dimethyl-3H-benzofuran-5-yl]pyrazolo[1,5-a]pyrimidine-3-carboxamide]: the pKi – broadly, the negative decadic logarithm of the Ki, by convention in mol/L – is 7.46.
As for `C[C@H](N)CN1CCN(c2cc3c(cc2NC(=O)c2cnn4cccnc24)CC(C)(C)O3)CC1` [Example 478, N-[6-[4-[(2S)-2-Aminopropyl]piperazin-1-yl]-2,2-dimethyl-3H-benzofuran-5-yl]pyrazolo[1,5-a]pyrimidine-3-carboxamide], the pKi is 8.22.
The result for `Cc1oc(=O)[nH]c1CN1CCN(c2cc3c(cc2NC(=O)c2cnn4cccnc24)CC(C)(C)O3)CC1` [Example 479, N-[2,2-Dimethyl-6-[4-[(5-methyl-2-oxo-3H-oxazol-4-yl)methyl]piperazin-1-yl]-3H-benzofuran-5-yl]pyrazolo[1,5-a]pyrimidine-3-carboxamide] reads 8.17; that for `CC(C)N1Cc2cc(NC(=O)c3cnn4ccc(C(F)F)nc34)c(N3CCOCC3)cc2C1=O` [Example 484, 5-(Difluoromethyl)-N-(2-isopropyl-6-morpholino-1-oxo-isoindolin-5-yl)pyrazolo[1,5-a]pyrimidine-3-carboxamide], 6.46.
Regarding `CC(C)N1Cc2cc(NC(=O)c3cnn4cc(C#N)cnc34)c(N3CCOCC3)cc2C1=O` [Example 485, 6-cyano-N-(2-isopropyl-6-morpholino-1-oxo-isoindolin-5-yl)pyrazolo[1,5-a]pyrimidine-3-carboxamide], the pKi was 7.18.
Under `CC(C)N1Cc2cc(NC(=O)c3cnn4cc(C(N)=O)cnc34)c(N3CCOCC3)cc2C1=O` [Example 486, N3-(2-isopropyl-6-morpholino-1-oxo-isoindolin-5-yl)pyrazolo[1,5-a]pyrimidine-3,6-dicarboxamide] stands 7.43; under `CC(C)(O)[C@H](F)CN1Cc2cc(NC(=O)c3cnn4cccnc34)c(C3CC3)cc2C1=O` [Example 487, N-[6-Cyclopropyl-2-[(2R)-2-fluoro-3-hydroxy-3-methyl-butyl]-1-oxo-isoindolin-5-yl]pyrazolo[1,5-a]pyrimidine-3-carboxamide], 9.21; under `Cn1cnc(-c2cc3c(cc2NC(=O)c2cnn4cccnc24)CC(C)(C)O3)c1` [Example 488, N-[2,2-Dimethyl-6-(1-methylimidazol-4-yl)-3H-benzofuran-5-yl]pyrazolo[1,5-a]pyrimidine-3-carboxamide], 6.21.
With `Cn1ccc(-c2cc3c(cc2NC(=O)c2cnn4cccnc24)CC(C)(C)O3)n1` [Example 489, N-(2,2-dimethyl-6-(1-methyl-1H-pyrazol-3-yl)-2,3-dihydrobenzofuran-5-yl)pyrazolo[1,5-a]pyrimidine-3-carboxamide], the pKi is 6.62.
The result for `CC1(C)Cc2cc(NC(=O)c3cnn4cc(C5CNC5)cnc34)c(N3CCOCC3)cc2O1` [Example 490, 6-(Azetidin-3-yl)-N-(2,2-dimethyl-6-morpholino-3H-benzofuran-5-yl)pyrazolo[1,5-a]pyrimidine-3-carboxamide] reads 6.01.
Under `CC1(C)Cc2cc(NC(=O)c3cnn4cc(C(N)=O)cnc34)c(N3CCOCC3)cc2O1` [Example 491, N^3-(2,2-dimethyl-6-morpholino-2,3-dihydrobenzofuran-5-yl)pyrazolo[1,5-a]pyrimidine-3,6-dicarboxamide] stands 8.96; under `CNC(=O)c1cnc2c(C(=O)Nc3cc4c(cc3N3CCOCC3)C(=O)N(C[C@@H](F)C(C)(C)O)C4)cnn2c1` [Example 492, N3-[2-[(2R)-2-Fluoro-3-hydroxy-3-methyl-butyl]-6-morpholino-1-oxo-isoindolin-5-yl]-N^6-methyl-pyrazolo[1,5-a]pyrimidine-3,6-dicarboxamide], 8.04.
The result for `CC1(C)Cc2cc(NC(=O)c3cnn4cc(OC(F)F)cnc34)c(N3CCOCC3)cc2O1` [Example 493, 6-(difluoromethoxy)-N-(2,2-dimethyl-6-morpholino-2,3-dihydrobenzofuran-5-yl)pyrazolo[1,5-a]pyrimidine-3-carboxamide] reads 7.37.
As for `CC(C)(O)[C@H](F)CN1Cc2cc(NC(=O)c3cnn4cccnc34)c(OCC3CC3)cc2C1=O` [Example 496, N-[6-(Cyclopropylmethoxy)-2-[(2R)-2-fluoro-3-hydroxy-3-methyl-butyl]-1-oxo-isoindolin-5-yl]pyrazolo[1,5-a]pyrimidine-3-carboxamide], the negative-log Ki (pKi) is 9.08.
As for `C[C@H]1CN(C)CC[C@]12Cc1cc(NC(=O)c3cnn4cccnc34)c(N3CCOCC3)cc1O2` [Example 497, N-((2R,3'S)-1′,3′-dimethyl-6-morpholino-3H-spiro[benzofuran-2,4′-piperidin]-5-yl)pyrazolo[1,5-a]pyrimidine-3-carboxamide], the negative logarithm of the Ki (pKi) was 8.59.
Under `C[C@@H]1CN(C)CC[C@]12Cc1cc(NC(=O)c3cnn4cccnc34)c(N3CCOCC3)cc1O2` [Example 498, N-((2R,3′R)-1′,3′-dimethyl-6-morpholino-3H-spiro[benzofuran-2,4′-piperidin]-5-yl)pyrazolo[1,5-a]pyrimidine-3-carboxamide] stands 7.54.
Consider `CC1(C)Cc2cc(NC(=O)c3cnn4cccnc34)c(N3CCOCC3)cc2C1=O` [Example 499, N-(2,2-Dimethyl-6-morpholino-1-oxo-2,3-dihydro-1H-inden-5-yl)pyrazolo[1,5-a]pyrimidine-3-carboxamide], for which the pKi is 7.52.
Under `CC(C)(O)[C@H](F)CN1Cc2cc(NC(=O)c3cnn4cccnc34)ccc2C1=O` [Example 500, N-[2-[(2R)-2-Fluoro-3-hydroxy-3-methyl-butyl]-1-oxo-isoindolin-5-yl]pyrazolo[1,5-a]pyrimidine-3-carboxamide] stands 7.08.
As for `O=C(Nc1cc2c(cc1N1CCOCC1)OC1(CCN(CCF)CC1)C2)c1cnn2cccnc12` [Example 501, N-(1′-(2-fluoroethyl)-6-morpholino-3H-spiro[benzofuran-2,4′-piperidin]-5-yl)pyrazolo[1,5-a]pyrimidine-3-carboxamide], the pKi is 8.16.
Under `CCN1CCC2(CC1)Cc1cc(NC(=O)c3cnn4cccnc34)c(N3CCOCC3)cc1O2` [Example 502, N-(1′-ethyl-6-morpholino-3H-spiro[benzofuran-2,4′-piperidin]-5-yl)pyrazolo[1,5-a]pyrimidine-3-carboxamide] stands 8.24.
Turning to `CC1(C)Cc2cc(NC(=O)c3cnn4cccnc34)c(N3CCN(Cc4ncc[nH]4)CC3)cc2O1` [Example 503, N-(6-(4-((1H-imidazol-2-yl)methyl)piperazin-1-yl)-2,2-dimethyl-2,3-dihydrobenzofuran-5-yl)pyrazolo[1,5-a]pyrimidine-3-carboxamide], the pKi was 8.40.
On to `CC1(C)Cc2cc(NC(=O)c3cnn4cccnc34)c(N3CCN(Cc4cnoc4)CC3)cc2O1` [Example 504, N-(6-(4-(isoxazol-4-ylmethyl)piperazin-1-yl)-2,2-dimethyl-2,3-dihydrobenzofuran-5-yl)pyrazolo[1,5-a]pyrimidine-3-carboxamide], for which the pKi is 8.51.
For `CC1(C)Cc2cc(NC(=O)c3cnn4cccnc34)c(N3CCN(Cc4ccn[nH]4)CC3)cc2O1` [Example 505, N-(6-(4-((1H-pyrazol-5-yl)methyl)piperazin-1-yl)-2,2-dimethyl-2,3-dihydrobenzofuran-5-yl)pyrazolo[1,5-a]pyrimidine-3-carboxamide], the pKi is 8.28.
With `Cn1cncc1CN1CCN(c2cc3c(cc2NC(=O)c2cnn4cccnc24)CC(C)(C)O3)CC1` [Example 506, N-(2,2-dimethyl-6-(4-((1-methyl-1H-imidazol-5-yl)methyl)piperazin-1-yl)-2,3-dihydrobenzofuran-5-yl)pyrazolo[1,5-a]pyrimidine-3-carboxamide], the negative-log Ki (pKi) is 8.29.
Under `Cc1nc(CN2CCN(c3cc4c(cc3NC(=O)c3cnn5cccnc35)CC(C)(C)O4)CC2)c[nH]1` [Example 507, N-(2,2-dimethyl-6-(4-((2-methyl-1H-imidazol-4-yl)methyl)piperazin-1-yl)-2,3-dihydrobenzofuran-5-yl)pyrazolo[1,5-a]pyrimidine-3-carboxamide] stands 8.49; under `CC(C)N1CCN(c2cc3c(cc2NC(=O)c2cnn4cccnc24)CC(C)(C)O3)CC1` [Example 508, N-(6-(4-isopropylpiperazin-1-yl)-2,2-dimethyl-2,3-dihydrobenzofuran-5-yl)pyrazolo[1,5-a]pyrimidine-3-carboxamide], 7.37; under `CC1(C)Cc2cc(NC(=O)c3cnn4cccnc34)c(N3CCN(Cc4c[nH]cn4)CC3)cc2O1` [Example 509, N-(6-(4-((1H-imidazol-4-yl)methyl)piperazin-1-yl)-2,2-dimethyl-2,3-dihydrobenzofuran-5-yl)pyrazolo[1,5-a]pyrimidine-3-carboxamide], 8.96.
Consider `C[C@]1(O)COc2cc(N3CCN(CC(F)F)CC3)c(NC(=O)c3cnn4cccnc34)cc2C1` [Example 510, (R)—N-(7-(4-(2,2-difluoroethyl)piperazin-1-yl)-3-hydroxy-3-methylchroman-6-yl)pyrazolo[1,5-a]pyrimidine-3-carboxamide], for which the negative-log Ki (pKi) is 7.36.
On to `CC1(C)Cc2cc(NC(=O)c3cnn4ccc(C[C@@H]5CNC(=O)C5)nc34)c(C3CC3)cc2O1` [Example 512, (S)—N-(6-Cyclopropyl-2,2-dimethyl-2,3-dihydrobenzofuran-5-yl)-5-((5-oxopyrrolidin-3-yl)methyl)pyrazolo[1,5-a]pyrimidine-3-carboxamide], for which the pKi was 6.82.
For the compound `CC1(C)Cc2cc(NC(=O)c3cnn4ccc(C[C@H]5CNC(=O)C5)nc34)c(C3CC3)cc2O1` [Example 513, (R)—N-(6-cyclopropyl-2,2-dimethyl-2,3-dihydrobenzofuran-5-yl)-5-((5-oxopyrrolidin-3-yl)methyl)pyrazolo[1,5-a]pyrimidine-3-carboxamide], the pKi was 6.68.
